Assay results from the NIST ThermoML archive (doi:10.1021/acs.jced.5b00447).

What was measured:
[1] = for surface tension liquid-gas: wilhelmi plate; for viscosity / speed of sound / mass density: 100 kPa, Liquid; for viscosity: Capillary tube (Ostwald / Ubbelohde) method; for speed of sound: Frequency=3 MHz, Sing-around technique in a fixed-path interferometer; for mass density: Vibrating tube method
[2] = xn = mol fraction of the nth substance listed; details: for surface tension liquid-gas: wilhelmi plate; for viscosity / speed of sound / mass density: 100 kPa, Liquid; for viscosity: Capillary tube (Ostwald / Ubbelohde) method; for speed of sound: Frequency=3 MHz, Sing-around technique in a fixed-path interferometer; for mass density: Vibrating tube method

CN(C)CCO [2-(N,N-dimethylamino)ethanol]
[1], 298.15 K
Details | mass density [kg/m3] | speed of sound [m/s] | surface tension liquid-gas [mN/m] | viscosity [mPa·s]
– | 882.8 | 1335.9 | 31.3 | 3.69

NCCO [2-aminoethan-1-ol]
[1], 298.15 K
Details | mass density [kg/m3] | speed of sound [m/s] | surface tension liquid-gas [mN/m] | viscosity [mPa·s]
– | 1012 | 1719.2 | 49.1 | 18.74

CN(C)CCN [2-dimethylamino-1-ethylamine]
[1]
Details | mass density [kg/m3] | speed of sound [m/s] | surface tension liquid-gas [mN/m] | viscosity [mPa·s]
293.15 K | 819 | 1319.6 | 26.4 | 0.988
298.15 K | 814.3 | 1300.8 | 26.1 | 0.895
303.15 K | 810 | 1279.3 | 25.8 | 0.819
313.15 K | 801 | 1239 | 25.2 | 0.693
323.15 K | 791 | 1199.3 | 24.5 | 0.596

CN(C)CCN [2-dimethylamino-1-ethylamine] + NCCO
[2], x1 = 0.5
Details | mass density [kg/m3] | speed of sound [m/s] | surface tension liquid-gas [mN/m] | viscosity [mPa·s]
293.15 K | 941 | 1498.1 | 32.4 | 10.74
303.15 K | 932 | 1463.7 | 31.6 | 7.169
313.15 K | 924 | 1428.9 | 30.9 | 5.066
323.15 K | 916 | 1394.1 | 30.3 | 3.517

O [water]
[1]
Details | mass density [kg/m3] | speed of sound [m/s] | surface tension liquid-gas [mN/m] | viscosity [mPa·s]
293.15 K | 998 | – | 72.6 | 0.993
298.15 K | – | – | 72.1 | 0.891
303.15 K | 996 | – | 71.1 | 0.797
313.15 K | 992 | 1529.1 | 69.2 | 0.654
323.15 K | 988 | – | 67.7 | 0.547

O [water] + CN(C)CCN
[2], x2 = 0
Details | mass density [kg/m3] | speed of sound [m/s] | surface tension liquid-gas [mN/m] | viscosity [mPa·s]
293.15 K | 998 | – | 72.6 | 0.993
303.15 K | 996 | – | 71.1 | 0.797
313.15 K | 992 | 1529.1 | 69.2 | 0.654
323.15 K | 988 | – | 67.7 | 0.547
